We go through 14 compounds from patent US11753445B2, “Therapeutic peptides” (COHBAR, INC., priority 2016, dated 2023).

Peptide text beside a SMILES is read from it.

In one series the test system is 3T3-L1 Adipocytes. In words: Free fatty acid levels in cultured mouse 3T3-L1 adipocytes, isoproterenol stimulated (Example 2). It counts as cell-based. The note with it: test peptides 25 μM; isoproterenol 1 nM. The protocol:
Mouse 3T3-L1 cells were seeded at a density between 1,000-20,000 cells per well on 96-well, 48-well, or 24-well plates in Pre-adipocyte Medium (Zen-Bio, Durham, N.C.) and grown to confluence at 37° C. in a humidified atmosphere of 5% CO2/95% air. Two days after confluence, cells were placed in Adipocyte Differentiation Medium (Zen-Bio, Durham, N.C.) and cultured for three additional days at 37° C. in a humidified atmosphere of 5% CO2/95% air. The culture media was then replaced with Adipocyte Maintenance Medium (Zen-Bio) and the cells were maintained for an additional 9-14 days at 37° C. in a humidified atmosphere of 5% CO2/95% air with partial medium replacement every other day. Following 12-17 days of differentiation, test peptides were added at a final concentration of 25 μM and incubated for 18-20 hours in Adipocyte Maintenance Medium at 37° C. in a humidified atmosphere of 5% CO2/95%. After 18-20 hours, the media was exchanged with fresh Adipocyte Maintenance Medium containing test peptides and incubated for 1 h at 37° C. in a humidified atmosphere of 5% CO2/95%. After 1 h media was exchanged with Assay Buffer (Zen-Bio) containing isoproterenol (1 nM) (added to all samples except untreated controls) and the test peptides. Cells were incubated for a further 3 hours at 37° C. in a humidified atmosphere of 5% CO2/95%. Free fatty acid concentrations in the media were determined using a Free Fatty Acid Assay Kit (Zen-Bio) according to the manufacturer's instructions using a plate reader (540 nm).
Absorbance values were corrected for untreated background and expressed relative to isoproterenol treated cells. Treatment with isoproterenol (1 nM) alone was used as the free fatty acid level stimulatory control. The relative standard deviation of the isoproterenol control was <10%. […] Free fatty acid levels for insulin (100 nM) treatment were <5% of the isoproterenol control value.

Series [1] is described as follows: Stability in mouse plasma, peptides 10 uM (Example 15). It counts as in vitro ADME. The note with it: mouse plasma 37° C., peptide 10 uM; for remaining at 0.25 h, 10 uM / remaining at 0.5 h, 10 uM / remaining at 1 h, 10 uM / remaining at 2 h, 10 uM / remaining at 3 h, 10 uM: pooled mouse plasma; for remaining at 0.25 h, 10 uM: 15 min, read-out: % Remaining at Each Time Point: 15 min; for remaining at 0.5 h, 10 uM: 30 min, read-out: % Remaining at Each Time Point: 30 min; for remaining at 1 h, 10 uM: 60 min, read-out: % Remaining at Each Time Point: 60 min; for remaining at 2 h, 10 uM: 120 min, read-out: % Remaining at Each Time Point: 120 min; for remaining at 3 h, 10 uM: 180 min, read-out: % Remaining at Each Time Point: 180 min. The protocol:
Peptides (10 uM) were incubated in pooled mouse plasma at 37° C. and samples were removed and immediately analyzed for the concentration of intact peptide by LC/MS/MS over the course of 3 hours. The percent of peptide remaining in plasma at each time point was calculated relative to the initial peak area (Table 13).

For `CC[C@H](C)[C@H](NC(=O)[C@H](Cc1ccc(O)cc1)NC(=O)[C@@H](C)NC(=O)[C@H](CCSC)NC(=O)[C@H](CCC(=O)O)NC(=O)[C@H](CCC(N)=O)NC(=O)[C@H](Cc1c[nH]c2ccccc12)NC(=O)[C@H](CCCNC(=N)N)NC(=O)[C@H](CCSC)NC(C)=O)C(=O)N[C@@H](Cc1ccccc1)C(=O)N[C@@H](Cc1ccc(O)cc1)C(=O)N1CCC[C@H]1C(=O)N[C@@H](CCCNC(=N)N)C(=O)N[C@@H](CCCCN)C(=O)N[C@@H](CC(C)C)C(=O)N[C@@H](CCCNC(=N)N)C(N)=O` [compound 88] (HELM PEPTIDE1{[ac].M.R.W.Q.E.M.[dA].Y.I.F.Y.P.R.K.L.R.[am]}$$$$V2.0), the “Free Fatty Acid Levels in 3T3-L1 Adipocytes Expressed as a Percent of Isoproterenol Control: Percent of Control Value” with 3T3-L1 Adipocytes is recorded as 75.1%.
Same read-out and setting: next, `CC[C@H](C)[C@H](NC(=O)[C@H](Cc1ccc(O)cc1)NC(=O)CNC(=O)[C@H](CCSC)NC(=O)[C@H](CCC(=O)O)NC(=O)[C@H](CCC(N)=O)NC(=O)[C@H](Cc1c[nH]c2ccccc12)NC(=O)C(C)(C)NC(=O)[C@@H](N)CCSC)C(=O)N[C@@H](Cc1ccccc1)C(=O)N[C@@H](Cc1ccc(O)cc1)C(=O)N1CCC[C@H]1C(=O)N[C@@H](CCCNC(=N)N)C(=O)N[C@@H](CCCCN)C(=O)N[C@@H](CC(C)C)C(=O)N[C@@H](CCCNC(=N)N)C(=O)O` [compound 118] (HELM PEPTIDE1{M.[Aib].W.Q.E.M.G.Y.I.F.Y.P.R.K.L.R}$$$$V2.0): 84.6%; `CC[C@H](C)[C@H](NC(=O)[C@H](Cc1ccc(O)cc1)NC(=O)CNC(=O)[C@H](CCSC)NC(=O)[C@H](CCC(=O)O)NC(=O)[C@H](CCC(N)=O)NC(=O)[C@H](Cc1c[nH]c2ccccc12)NC(=O)C(C)(C)NC(=O)[C@@H](N)CCSC)C(=O)N[C@@H](Cc1ccccc1)C(=O)N[C@@H](Cc1ccc(O)cc1)C(=O)N1CCC[C@H]1C(=O)N[C@@H](CCCNC(=N)N)C(=O)N[C@@H](CCCCN)C(=O)N[C@@H](CC(C)C)C(=O)N[C@@H](CCCNC(=N)N)C(N)=O` [compound 119] (HELM PEPTIDE1{M.[Aib].W.Q.E.M.G.Y.I.F.Y.P.R.K.L.R.[am]}$$$$V2.0): 89.2%.
Still for that read-out and setting: next, `CC[C@H](C)[C@H](NC(=O)[C@H](Cc1ccc(O)cc1)NC(=O)CNC(=O)[C@H](CCSC)NC(=O)[C@H](CCC(=O)O)NC(=O)[C@H](CCC(N)=O)NC(=O)[C@H](Cc1c[nH]c2ccccc12)NC(=O)C(C)(C)NC(=O)[C@H](CCSC)NC(C)=O)C(=O)N[C@@H](Cc1ccccc1)C(=O)N[C@@H](Cc1ccc(O)cc1)C(=O)N1CCC[C@H]1C(=O)N[C@@H](CCCNC(=N)N)C(=O)N[C@@H](CCCCN)C(=O)N[C@@H](CC(C)C)C(=O)N[C@@H](CCCNC(=N)N)C(=O)O` [compound 120] (HELM PEPTIDE1{[ac].M.[Aib].W.Q.E.M.G.Y.I.F.Y.P.R.K.L.R}$$$$V2.0): 86.0%.
On the same count and under the same terms, in the case of `CC[C@H](C)[C@H](NC(=O)[C@H](Cc1ccc(O)cc1)NC(=O)CNC(=O)[C@H](CCSC)NC(=O)[C@H](CCC(=O)O)NC(=O)[C@H](CCC(N)=O)NC(=O)[C@H](Cc1c[nH]c2ccccc12)NC(=O)C(C)(C)NC(=O)[C@H](CCSC)NC(C)=O)C(=O)N[C@@H](Cc1ccccc1)C(=O)N[C@@H](Cc1ccc(O)cc1)C(=O)N1CCC[C@H]1C(=O)N[C@@H](CCCNC(=N)N)C(=O)N[C@@H](CCCCN)C(=O)N[C@@H](CC(C)C)C(=O)N[C@@H](CCCNC(=N)N)C(N)=O` [compound 121] (HELM PEPTIDE1{[ac].M.[Aib].W.Q.E.M.G.Y.I.F.Y.P.R.K.L.R.[am]}$$$$V2.0) it was 89.8%.
Consider `CC[C@H](C)[C@H](NC(=O)[C@H](Cc1ccc(O)cc1)NC(=O)CNC(=O)[C@H](CCSC)NC(=O)[C@H](CCC(=O)O)NC(=O)[C@H](CCC(N)=O)NC(=O)[C@H](Cc1c[nH]c2ccccc12)NC(=O)[C@H](CCCNC(=N)N)NC(=O)[C@@H](C)N)C(=O)N[C@@H](Cc1ccccc1)C(=O)N[C@@H](Cc1ccc(O)cc1)C(=O)N1CCC[C@H]1C(=O)N[C@@H](CCCNC(=N)N)C(=O)N[C@@H](CCCCN)C(=O)N[C@@H](CC(C)C)C(=O)N[C@@H](CCCNC(=N)N)C(=O)O` [compound 136] (HELM PEPTIDE1{[dA].R.W.Q.E.M.G.Y.I.F.Y.P.R.K.L.R}$$$$V2.0), for which the “Free Fatty Acid Levels in 3T3-L1 Adipocytes Expressed as a Percent of Isoproterenol Control: Percent of Control Value” with 3T3-L1 Adipocytes came out at 44.2%.
On the same count and under the same terms, in the case of `CC[C@H](C)[C@H](NC(=O)[C@H](Cc1ccc(O)cc1)NC(=O)CNC(=O)[C@H](CCSC)NC(=O)[C@H](CCC(=O)O)NC(=O)[C@H](CCC(N)=O)NC(=O)[C@H](Cc1c[nH]c2ccccc12)NC(=O)[C@@H](C)NC(=O)[C@@H](N)CCSC)C(=O)N[C@@H](Cc1ccccc1)C(=O)N[C@@H](Cc1ccc(O)cc1)C(=O)N1CCC[C@H]1C(=O)N[C@@H](CCCNC(=N)N)C(=O)N[C@@H](CCCCN)C(=O)N[C@@H](CC(C)C)C(=O)N[C@@H](CCCNC(=N)N)C(=O)O` [compound 137] (HELM PEPTIDE1{M.[dA].W.Q.E.M.G.Y.I.F.Y.P.R.K.L.R}$$$$V2.0) it was 91.4%; in that of `CC[C@H](C)[C@H](NC(=O)[C@H](Cc1ccc(O)cc1)NC(=O)CNC(=O)[C@H](CCSC)NC(=O)[C@H](CCC(=O)O)NC(=O)[C@H](CCC(N)=O)NC(=O)[C@@H](C)NC(=O)[C@H](CCCNC(=N)N)NC(=O)[C@@H](N)CCSC)C(=O)N[C@@H](Cc1ccccc1)C(=O)N[C@@H](Cc1ccc(O)cc1)C(=O)N1CCC[C@H]1C(=O)N[C@@H](CCCNC(=N)N)C(=O)N[C@@H](CCCCN)C(=O)N[C@@H](CC(C)C)C(=O)N[C@@H](CCCNC(=N)N)C(=O)O` [compound 138] (HELM PEPTIDE1{M.R.[dA].Q.E.M.G.Y.I.F.Y.P.R.K.L.R}$$$$V2.0), 71.5%.
For the compound H-RWQEENYIAEPR-OH [compound 261], in series [1], the “% Remaining at Each Time Point: 0 min” value worked out at 100%; the share remaining at 0.25 h, 10 uM turned out to be 85%; the fraction remaining at 0.5 h, 10 uM worked out at 73.4%; the share remaining at 1 h, 10 uM stood at 69.3%. For the same compound, in series [1], the fraction remaining at 2 h, 10 uM stood at 68.1% and the share remaining at 3 h, 10 uM came out at 73.7%.
Take H-RWQEENYIFEPR-OH [compound 259]: in series [1], the “% Remaining at Each Time Point: 0 min” value is reported as 100%; the amount remaining at 0.25 h, 10 uM amounted to 82.2%; the amount remaining at 0.5 h, 10 uM worked out at 65.2%; the fraction remaining at 1 h, 10 uM was 42.2%. In series [1], the share remaining at 2 h, 10 uM was 32.8% and the fraction remaining at 3 h, 10 uM worked out at 34.8%.
H-RWQEENYIFYPR-OH [compound 258]: in series [1], the “% Remaining at Each Time Point: 0 min” value was found to be 100%; the share remaining at 0.25 h, 10 uM came to 63.2%; the fraction remaining at 0.5 h, 10 uM stood at 53.5%; the fraction remaining at 1 h, 10 uM was 36.3%. For the same compound, in series [1], the fraction remaining at 2 h, 10 uM was found to be 30.3% and the share remaining at 3 h, 10 uM worked out at 21.7%.
Turning to H-RWQEEQYIFYPR-OH [compound 263], in series [1], the “% Remaining at Each Time Point: 0 min” value turned out to be 100%; the fraction remaining at 0.25 h, 10 uM stood at 80.7%; the amount remaining at 0.5 h, 10 uM was 68.6%; the share remaining at 1 h, 10 uM came out at 46.9%. Also, in series [1], the share remaining at 2 h, 10 uM stood at 40.5% and the fraction remaining at 3 h, 10 uM came to 30.8%.
Regarding H-RWQEMQYIAYPR-OH [compound 255], in series [1], the “% Remaining at Each Time Point: 0 min” value came out at 100%; the share remaining at 0.25 h, 10 uM stood at 78.3%; the fraction remaining at 0.5 h, 10 uM turned out to be 62.6%; the amount remaining at 1 h, 10 uM stood at 40.9%. In addition, in series [1], the fraction remaining at 2 h, 10 uM came out at 28.7% and the share remaining at 3 h, 10 uM was 19.6%.
Regarding H-RWQEMQYIFEPR-OH [compound 254], in series [1], the “% Remaining at Each Time Point: 0 min” value was 100%; the fraction remaining at 0.25 h, 10 uM worked out at 52.4%; the amount remaining at 0.5 h, 10 uM turned out to be 33.3%; the fraction remaining at 1 h, 10 uM amounted to 30.3%. In series [1], the fraction remaining at 2 h, 10 uM was determined as 24% and the share remaining at 3 h, 10 uM worked out at 18.1%.

Broadly, the amount remaining is what is left of the initial amount, in per cent.
